Test results from patent publication US6455593B1, “Method of dynamic retardation of cell cycle kinetics to potentiate cell damage” (priority 1995, dated 2002).
Like-named read-outs stand apart in the source and are kept apart here.

System: human promonocytic lymphoma cells (U937)
Experiment: Microculture indicator system (MIS), MTT growth inhibition assay with bivariate serial dilutions
Format: cell-based
Conditions: Homo sapiens
Experimental: Microcultures of human promonocytic lymphoma cells (U937) (“the U937 cells”) originally obtained from the American Type Culture Collection (CRL 1593) and later grown by Dr. K. Zoon at the FDA in Bethesda, Md. were set up in a multiwell plate with serial two-fold dilutions of dThd in tissue culture growth medium (RPMI 1640 plus 10% Nurserum and antibiotics). The volume of medium per well was 100 μl and the cell number per well was about 1×10^5. The plate was incubated at 37° C. for 24 hr.
A dye, 3-[4,5-dimethylthiazol-2-yl]-2,5-diphenyl-tetrazolium bromide (MTT), was used as a chromogenic indicator of the metabolically active cell mass. Viable cells metabolize the dye and accumulate a reduced formazan product (blue color) which is solubilized for colorimetry. Mossman T, J. Immunol. Methods 5:55-63 (1983); Li L and Lau B H S, In Vitro Cell Dev. Biol. 29A:531-536 (1993). The MTT assay has been established as useful for measuring either growth inhibition or population killing. Plowman, supra. The MTT method is ideal for cells tested in suspension growth, and can also be used for some cells growing in monolayers. […] Alley, supra; Hofs, supra; Wilson J K et al., Br. J. Cancer 62:189-94 (1990); Plowman, supra.
Thirty μl of 0.5% MTT in phosphate buffered saline was added to each microculture well at the appropriate time. After incubation at 37° C. for 3 hr, 120 μl of an aqueous solution of 10 % SDS with 0.01 N HCl was added to release and dissolve formazan product. This was accomplished by overnight incubation of the plate at 37° C. After careful mixing of the microwell contents by placing the plates on an orbital shaker for 5 minutes the absorbencies were quantitated by spectrophotometry at 570 nm with a Ceres UV 900 HDI microwell plate reader (from Biotek Instruments Inc, Winooski, Vt. 05404-0998). Absorbance data was normalized to a blank well containing all reagents without cells and was collected semi-automatically.
Flat-bottom 96-well plates of tissue culture quality (Corning or Costar) were set up with two-fold serial dilutions of each agent to be tested, e.g., the RA and TCI, using a multichannel pipettor with adjustable volume, e.g., Costar or Rainin, to perform serial mixing. This set-up is diagrammed in FIG. 12. […] In each plate, a total of 59 wells then contained bivariate agent combinations, the bivariate serial dilutions.
Agents were serially diluted by serial mixing in two separate plates or series of wells, and then were combined prior to addition of a fixed volume and density of the U937 cells in a suspension calculated to deliver about 1×10^5 cells per well.
Cells were added after serial dilutions of the dThd had been dispensed. Cells were dispensed at about 10×10^4 cells per microwell to provide optimal sensitivity of detection of cell damage in subsequent calorimetric assays. […] The final volume of medium was 100 μl/well. The plates were further incubated at 37° C. for a total duration of 18-24 h. The dye MTT was used as a chromogenic indicator of the residual and metabolically active cell mass. (Described in Example 1).
In this MTT assay, normalized absorbance data was collected semi-automatically from each microculture well with a Ceres UV 900 HD1 plate reader, from Biotek Instruments Inc., Winooski, V T 05404-0998, stored in an EIA file under the Ceres 900 program, transferred in comma delimited format to a floppy diskette, and imported into a spread sheet program (Borland Quattro Pro) for data manipulations.

[1] = U-937, 4 h, U937, dThd […] 4 H, Cisplatin 0, read-out: MTT % inhibition, dThd only

In the case of `Cc1cn([C@H]2C[C@H](O)[C@@H](CO)O2)c(=O)[nH]c1=O` [dThd, deoxythymidine], the inhibition at 10 µM (U-937, 4 h, U937, dThd 0.01 mM 4 H, no Cisplatin, read-out: MTT % inhibition, dThd only) is reported as 7%, the inhibition at 10 µM (U-937, 4 h, U937, dThd 0.01 mM (column 8, lowest) 4 H, no Cisplatin, read-out: MTT % inhibition, dThd only) is reported as 4% and the inhibition at 20 µM (U-937, 4 h, U937, dThd 0.02 mM 4 H, no Cisplatin, read-out: MTT % inhibition, dThd only) is reported as 12%. For the same compound, the inhibition at 50 µM (U-937, 4 h, U937, dThd 0.05 mM 4 H, no Cisplatin, read-out: MTT % inhibition, dThd only) was 19%, the inhibition at 90 µM (U-937, 4 h, U937, dThd 0.09 mM 4 H, Cisplatin 0, read-out: MTT % inhibition, dThd only) was 22% and the inhibition at 3000 µM (U-937, 4 h, U937, dThd 3.00 mM 4 H, Cisplatin 0, read-out: MTT % inhibition, dThd only) was 56%. The inhibition at 190 µM [1] was 29%, the inhibition at 380 µM [1] was 32% and the inhibition at 760 µM [1] was 40%. The inhibition at 1500 µM [1] was 48%, the inhibition at 10 µM (U-937, U937, dThd 0.01 mM (c20) for 0 H (added with STSP), STSP for 18 H, total 18 H, STSP nM: 100,50,25,12.6,6.25,3.13, r28 dThd alone, read-out: Growth inhibition (MTT), dThd for 0 H, dThd 0.01 mM (ninth dilution)) was 4% and the inhibition at 10 µM (U-937, U937, dThd 0.01 mM (c20) for 4 H, STSP for 14 H, total 18 H, STSP nM: 100,50,25,12.5,6.25,3.125, r14 dThd alone, read-out: Growth inhibition (MTT), dThd 0.01 mM (ninth dilution)) was -2%. It also gave an inhibition at 10 µM (U-937, U937, dThd 0.01 mM (c22, last dilution) for 0 H (added with STSP), STSP for 18 H, total 18 H, STSP nM: 100,50,25,12.6,6.25,3.13, r28 dThd alone, read-out: Growth inhibition (MTT), dThd for 0 H, dThd 0.01 mM (tenth, last dilution)) of 3%, an inhibition at 10 µM (U-937, U937, dThd 0.01 mM (c22, last two-fold dilution) for 4 H, STSP for 14 H, total 18 H, STSP nM: 100,50,25,12.5,6.25,3.125, r14 dThd alone, read-out: Growth inhibition (MTT), dThd 0.01 mM (tenth, last dilution)) of -7% and an inhibition at 20 µM (U-937, U937, dThd 0.02 mM for 0 H (added with STSP), STSP for 18 H, total 18 H, STSP nM: 100,50,25,12.6,6.25,3.13, r28 dThd alone, read-out: Growth inhibition (MTT), dThd for 0 H, dThd 0.02 mM) of 6%. For the same compound, the inhibition at 20 µM (U-937, U937, dThd 0.02 mM for 4 H, STSP for 14 H, total 18 H, STSP nM: 100,50,25,12.5,6.25,3.125, r14 dThd alone, read-out: Growth inhibition (MTT), dThd 0.02 mM) was 11%, the inhibition at 50 µM (U-937, U937, dThd 0.05 mM for 4 H, STSP for 14 H, total 18 H, STSP nM: 100,50,25,12.5,6.25,3.125, r14 dThd alone, read-out: Growth inhibition (MTT), dThd 0.05 mM) was 10% and the inhibition at 60 µM (U-937, U937, dThd 0.06 mM for 0 H (added with STSP), STSP for 18 H, total 18 H, STSP nM: 100,50,25,12.6,6.25,3.13, r28 dThd alone, read-out: Growth inhibition (MTT), dThd for 0 H, dThd 0.06 mM) was 10%. It also gave an inhibition at 90 µM (U-937, U937, dThd 0.09 mM for 0 H (added with STSP), STSP for 18 H, total 18 H, STSP nM: 100,50,25,12.6,6.25,3.13, r28 dThd alone, read-out: Growth inhibition (MTT), dThd for 0 H, dThd 0.09 mM) of 12%, an inhibition at 90 µM (U-937, U937, dThd 0.09 mM for 4 H, STSP for 14 H, total 18 H, STSP nM: 100,50,25,12.5,6.25,3.125, r14 dThd alone, read-out: Growth inhibition (MTT), dThd 0.09 mM) of 14% and an inhibition at 3000 µM (U-937, U937, dThd 3.00 mM for 0 H (added with STSP), STSP for 18 H, total 18 H, STSP nM: 100,50,25,12.6,6.25,3.13, r28 dThd alone, read-out: Growth inhibition (MTT), dThd for 0 H, dThd 3.00 mM) of 38%. It also gave an inhibition at 3000 µM (U-937, U937, dThd 3.00 mM for 4 H, STSP for 14 H, total 18 H, STSP nM: 100,50,25,12.5,6.25,3.125, r14 dThd alone, read-out: Growth inhibition (MTT), dThd 3.00 mM) of 50%.
